Data from US10350206B2, “Benzyl substituted indazoles as BUB1 inhibitors” (Bayer Pharma Aktiengesellschaft, priority 2014, dated 2019).
Counter-ions that a name gives are not always drawn. Like-named read-outs stand apart in the source and are kept apart here.

Columns and labels:
[1] = Stability in buffer at various pH values (HPLC detection); assay type: physicochemical; conditions: 37° C., remaining prodrug; for Stability pH 4: % Test Compound after 4 h [F(t = 4 h) × 100/F(t = 0 h)]: pH 4 buffer; for Stability pH 7.4: % Test Compound after 4 h [F(t = 4 h) × 100/F(t = 0 h)]: pH 7.4 buffer
Description: Stability in Buffer at Various pH Values (HPLC Detection)
0.3 mg of the test compound was solved in 0.1 ml dimethylsulfoxide and 0.4 ml acetonitrile. For complete dissolution the HPLC vial with the sample solution was sonified for about 20 seconds. Then 1.0 ml of the respective buffer solution was added and the sample was again treated in the ultrasonic bath.
• pH 4.0: Fluka buffer, Order No. 33643 (11.76 g citric acid, 2.57 g sodium chloride and 2.72 g sodium hydroxide) • pH 7.4: 90 g of sodium chloride, 13.61 g of potassium dihydrogen phosphate and 83.35 g of 1 M sodium hydroxide solution were made up to 1 L with Millipore water and then diluted 1:10. • 10 μl portions of the sample solution were analysed by HPLC at different times (0 h, 1 h, 2h, 4h and 24h) at 37° C. The peak areas in percentage were used for quantification. HPLC Method: • Agilent 1100 with DAD (G1315B), binary pump (G1312A), autosampler (G1329A), column oven (G1316A), thermostat (G1330B); column: Kromasil 100 C18, 250 mm×4 mm, 5 μm; column temperature: 37° C.; eluent A: water+5 ml of perchloric acid/litre, eluent B: acetonitrile. Gradient: • 0 min 98% A, 2% B→0-3.0 min 85% A, 15% B→3.0-8.0 min 50% A, 50% B→8.0-16.0 min 50% A, 50% B→16.0-20.0 min 10% A, 90% B→20.0-21.0 10% A, 90% B→21.0-24.0 min 98% A, 2% B→24.0-25.0 min 98% A, 2% B; flow rate: 1.5 ml/min; UV detection: 210 nm.
The ratios of the peak area (F) at different times in relation to the peak area at the starting point are shown in Table 3 for representative examples: […]

[2] = biological target: T1, catalytic domain of human Bub1 (amino acids 704-1085) (Homo sapiens, UniProt O43683); test: Equilibrium probe competition assay (TR-FRET kinase binding assay); conditions: read-out: Assay 5 IC50
T1 construct: catalytic domain of human Bub1 (amino acids 704-1085); His6 (N); made in house; host or cells: Hi5 insect cells
Description: The half-life of prodrugs (Table 3) poses a challenge for the verification of their biological activity. The Bub1 enzymatic activity assay (as per Biological Assay 1.0 infra) requires a minimum reaction time of 60 minutes in order to be able to assess the inhibitory activity of the compounds. During this time typically 20% to 60% of the prodrugs have been already converted to their corresponding drugs at the pH of 7.5 at which the assay is performed. Ideally one would perform the biological assay at a pH at which the prodrug is stable (e.g. pH 4). […] Alternatively, an assay requiring shorter incubation times would better estimate the binding affinities of the prodrugs. […] Extrapolating the stability data from Tables 3 and 4, one would expect at this time point most of the compound present in the test solution to be the prodrug.
FIGS. 1 and 2 combine the results from Biological Assay 5 with those from Biological Assay 6. The binding affinities over time of drug and prodrug pairs are shown as pIC50 together with the prodrug stability, and the pIC50 to be expected if only the drug present in the sample was responsible for the activity in the assay. Extrapolating the pIC50 from these graphs to time 0 (at which 100% of prodrug is present in the sample), the actual affinity of the drug and prodrug can be inferred. Secondly, looking at the differences between expected and real pIC50 an estimate can be made about the contribution of the prodrug to the observed activity.
Biological Assay 5.0: Equilibrium Probe Competition Assay:
Bub1 binding affinity of compounds described in the present invention were quantified using a time-resolved fluorescence energy transfer (TR-FRET) kinase binding assay which measures displacement of the synthetic fluorescent probe 5-[({2-[2-({2-[1-(4-ethoxy-2,6-difluorobenzyl)-1H-indazol-3-yl]-4-(pyridin-4-ylamino)pyrimidin-5-yl}oxy)ethoxy]ethyl}carbamothioyl)amino]-2-(6-hydroxy-3-oxo-3H-xanthen-9-yl)benzoic acid (6-5-1) by the (recombinant) catalytic domain of human Bub1 (amino acids 704-1085). The enzyme was expressed in Hi5 insect cells with N-terminal 6×His/AviTag® sequences, purified by affinity- (Ni-NTA) and size exclusion chromatography and site-specific biotinylated ex-vivo using a commercially available kit (Avidity).
In a typical assay 11 different concentrations of each compound (0.1 nM, 0.33 nM, 1.1 nM, 3.8 nM, 13 nM, 44 nM, 0.15 μM, 0.51 μM, 1.7 μM, 5.9 μM and 20 μM) were tested in duplicate within the same microtiter plate. To this end, 100-fold concentrated compound solutions (in DMSO) were made by serial dilution (1:3.4) of freshly prepared 2 mM stocks in a clear low volume 384-well source microtiter plate (Greiner Bio-One, Frickenhausen, Germany), from which 50 nl of compounds were transferred into a black low volume test microtiter plate from the same supplier. Subsequently 2 μL of a solution containing biotinylated Bub1 (the final concentration of Bub1 was adjusted depending on the activity of the enzyme lot in order to be within the linear dynamic range of the assay: typically ˜[…] were used) and 1 nM Streptavidin Terbium Cryptate (Cisbio, No. 610SATLB) in aqueous assay buffer [50 mM Tris/HCl pH 7.5, 200 mM potassium chloride (KCl), 1.0 mM dithiothreitol (DTT), 0.1 mM sodium ortho-vanadate, 1% (v/v) glycerol, 0.01% (w/v) bovine serum albumine (BSA), 0.005% (v/v) Triton X-100 (Sigma), were added to the compounds in the test plate and the mixture was incubated for 15 min at 22° C. to allow pre-equilibration of the putative enzyme-inhibitor complexes before the start of the probe competition reaction, which was initiated by the addition of 3 μL 1.67-fold concentrated solution (in assay buffer) of 6-5-1 (final concentration: 1.5 nM). The resulting mixture (5 μL final volume) was incubated at 22° C. during 0, 15, 30, 60, 120, 240 and 1440 min. […]

Structure (SMILES) | Stability pH 4: % Test Compound after 4 h [F(t = 4 h) × 100/F(t = 0 h)] [1] | Stability pH 7.4: % Test Compound after 4 h [F(t = 4 h) × 100/F(t = 0 h)] [1] | IC50 ([2]; Time 15 min) | IC50 ([2]; Time 30 min) | IC50 ([2]; Time 60 min) | IC50 ([2]; Time 90 min) | IC50 ([2]; Time 120 min) | IC50 ([2]; Time 240 min) | IC50 ([2]; Time 1440 min)
COc1cnc(-c2nn(Cc3c(F)cc(OCCOC(=O)[C@H](C)NC(=O)[C@@H](N)CCCCN)cc3F)c3ccccc23)nc1Nc1ccnc(F)c1 [Example 4-1-4, 2-{3,5-difluoro-4-[(3-{4-[(2-fluoropyridin-4-yl)amino]-5-methoxypyrimidin-2-yl}-1H-indazol-1-yl)methyl]phenoxy}ethyl L-lysyl-L-alaninate, salt with trifluoroacetic acid] | 100% | 9% | – | – | – | – | – | – | –
COc1cnc(-c2nn(Cc3c(F)cc(OCCOC(=O)[C@H](C)NC(=O)[C@H](N)CCCCN)cc3F)c3ccccc23)nc1Nc1ccnc(F)c1 [Example 4-1-3, 2-{3,5-difluoro-4-[(3-{4-[(2-fluoropyridin-4-yl)amino]-5-methoxypyrimidin-2-yl}-1H-indazol-1-yl)methyl]phenoxy}ethyl D-lysyl-L-alaninate, salt with trifluoroacetic acid] | 100% | 0% | – | – | – | – | – | – | –
COc1cnccc1Nc1nc(-c2nn(Cc3c(F)cc(OCCOC(=O)[C@H](C)NC(=O)[C@@H](N)CCCCN)cc3F)c3ccccc23)ncc1OC [Example 4-1-2, 2-{3,5-difluoro-4-[(3-{5-methoxy-4-[(3-methoxypyridin-4-yl)amino]pyrimidin-2-yl}-1H-indazol-1-yl)methyl]phenoxy}ethyl L-lysyl-L-alaninate, salt with trifluoroacetic acid] | 100% | 5% | 2.7 nM | 2.3 nM | 2.2 nM | 1.3 nM | 1 nM | 0.69 nM | 0.36 nM
COc1cnc(-c2nn(Cc3c(F)cc(OCCOC(=O)[C@H](C)NC(=O)[C@@H](N)CCCCN)cc3F)c3ccccc23)nc1Nc1ccncc1 [Example 6-2-1, 2-[3,5-difluoro-4-({3-[5-methoxy-4-(pyridin-4-ylamino)pyrimidin-2-yl]-1 H-indazol-1-yl}methyl)phenoxy]ethyl L-lysyl-L-alaninate, salt with trifluoroacetic acid, reference compound] | 100% | 3% | – | – | – | – | – | – | –
COc1cnc(-c2nn(Cc3c(F)cc(OCCOC(=O)[C@H](C)NC(=O)[C@@H](N)CCCCN)cc3F)c3ccccc23)nc1Nc1ccnc(C)c1 [Example 4-1-1, 2-{3,5-difluoro-4-[(3-{5-methoxy-4-[(2-methylpyridin-4-yl)amino]pyrimidin-2-yl}-1 H-indazol-1-yl)methyl]phenoxy}ethyl L-lysyl-L-alaninate, salt with trifluoroacetic acid] | 100% | 4% | 17 nM | 10 nM | 12 nM | 10 nM | 7.2 nM | 5.8 nM | 2.7 nM
